Laboratory results reported in PMC9338265, “Pathogen-selective killing by guanylate-binding proteins as a molecular mechanism leading to inflammasome signaling” (Nature Communications, 2022).
Non-standard residues stand in square brackets, D forms with d. No end group written: not given here. *: point of attachment. FITC = O=C1OC2(c3ccc(O)cc3Oc3cc(O)ccc32)c2ccc(NC(=S)*)cc21; Ahx = NCCCCCC(=O)O

B1: mGBP1 (protein, UniProt Q01514 1-589, looked up)
Guanylate-binding protein 1: MASEIHMSEPMCLIENTEAQLVINQEALRILSAITQPVVVVAIVGLYRTGKSYLMNKLAGKRTGFSLGSTVQSHTKGIWMWCVPHPKKAGQTLVLLDTEGLEDVEKGDNQNDCWIFALAVLLSSTFIYNSIGTINQQAMDQLHYVTELTDLIKSKSSPDQSDVDNSANFVGFFPIFVWTLRDFSLDLEFDGESITPDEYLETSLALRKGTDENTKKFNMPRLCIRKFFPKRKCFIFDRPGDRKQLSKLEWIQEDQLNKEFVEQVAEFTSYIFSYSGVKTLSGGITVNGPRLKSLVQTYVSAICSGELPCMENAVLTLAQIENSAAVQKAITYYEEQMNQKIHMPTETLQELLDLHRTCEREAIEVFMKNSFKDVDQKFQEELGAQLEAKRDAFVKKNMDMSSAHCSDLLEGLFAHLEEEVKQGTFYKPGGYYLFLQRKQELEKKYIQTPGKGLQAEVMLRKYFESKEDLADTLLKMDQSLTEKEKQIEMERIKAEAAEAANRALAEMQKKHEMLMEQKEQSYQEHMKQLTEKMEQERKELMAEQQRIISLKLQEQERLLKQGFQNESLQLRQEIEKIKNMPPPRSCTIL

What was measured:
N. meningitidis [1] = assay: Bacterial viability assay (CFU or O.D.); format: cell-based, Neisseria meningitidis; conditions: 6 h
F. novicida [2] = test system: F. novicida
F. novicida [3] = format: cell-based, Francisella novicida
primary mouse BMDMs = assay: Cytotoxicity (SYTOX incorporation, LDH release); conditions: 10 µg/ml; IncuCyte live imaging; LDH after 24 h
[4] = test system: African green monkey kidney cells Vero; assay: Cytotoxicity (SYTOX incorporation, LDH release); conditions: 10 µg/ml; IncuCyte live imaging; LDH after 24 h
[5] = test system: human embryonic kidney cells HEK293; assay: Cytotoxicity (SYTOX incorporation, LDH release); conditions: 10 µg/ml; IncuCyte live imaging; LDH after 24 h
[6] = test system: human intestinal epithelial cells HT29; assay: Cytotoxicity (SYTOX incorporation, LDH release); conditions: 10 µg/ml; IncuCyte live imaging; LDH after 24 h
F. novicida [7] = format: cell-based, Francisella novicida; remark: listed apart in the source
E. coli [8] = assay: Bacterial viability assay (CFU); format: cell-based, Escherichia coli; conditions: 6 h
N. meningitidis [9] = assay: Peptide and protein binding assay with SYTOX staining; format: cell-based, Neisseria meningitidis; conditions: for Localization to and killing of N. meningitidis (SYTOX): 10 µg/mL FITC-peptide, 1 h or 6 h
F. novicida [10] = format: cell-based, Francisella novicida; remark: listed apart in the source
E. coli [11] = assay: Peptide and protein binding assay with SYTOX staining; format: cell-based, Escherichia coli
F. novicida [12] = format: binding, Francisella novicida
[13] = test system: isogenic lpxA mutant of N. meningitidis, which lacks LOS; assay: Bacterial viability assay (O.D.); format: cell-based, Neisseria meningitidis; conditions: mGBP1 protein at 0.4, 4 or 40 µM, 6 h; mutant lacking LOS

| Molecule | Viability of F. novicida (percentage of CFU in relation to solvent control) (F. novicida [2]) | SYTOX positive F. novicida, flow cytometry plot (F. novicida [3]) [%] | Cytotoxicity, SYTOX incorporation or LDH release, BMDMs (primary mouse BMDMs) | Cytotoxicity, SYTOX incorporation or LDH release, Vero [4] | Cytotoxicity, SYTOX incorporation or LDH release, HEK293 [5] | Cytotoxicity, SYTOX incorporation or LDH release, HT29 [6] | also measured |
| --- | --- | --- | --- | --- | --- | --- | --- |
| FYHTGKSYLMNKLAGKQKGFSL [GBP1^46–67] | little or no antimicrobial activity |  |  |  |  |  | Viability of N. meningitidis (percentage of CFU in relation to solvent control) (N. meningitidis [1]; peptide at 10 µg/ml): little or no antimicrobial activity |
| GTDENTKKFNMPRLCIRKFFPKRKCFIFDR [GBP1^209–238] | only GBP1^28–67 and WLBU2 exhibited | 9.2 | None of the peptides exhibited cytotoxicity | None of the peptides exhibited cytotoxicity | None of the peptides exhibited cytotoxicity | None of the peptides exhibited cytotoxicity |  |
| IRILEQIAQPLVVVAIVGLYRTGKSYLMNRLAGRNHGFSL [GBP3^22–61] | bacterial killing in a dose-dependent manner |  |  |  |  |  | Morphology of F. novicida by SEM and TEM (F. novicida [7]): bacterial membrane damage and bacteriolysis of F. novicida |
| LDILSAIQNPV [GBP1^28–38] | killed F. novicida and N. meningitidis similar to that observed for GBP1^28–67 |  |  |  |  |  | Viability of E. coli (percentage of CFU in relation to solvent control) (E. coli [8]; peptide at 10 µg/ml): unable to kill E. coli; Viability of N. meningitidis (percentage of CFU in relation to solvent control) (N. meningitidis [1]; peptide at 10 µg/ml): killed F. novicida and N. meningitidis similar to that observed for GBP1^28–67 |
| LDILSAIQNPVVVVAIVGFYHTGKSYLMNKLAGKQKGFSL [GBP1^28–67] |  |  | None of the peptides exhibited cytotoxicity | None of the peptides exhibited cytotoxicity | None of the peptides exhibited cytotoxicity | None of the peptides exhibited cytotoxicity | half maximal inhibitory concentration (IC50), viability of F. novicida (F. novicida [2]; 6 h): 5.04 µg/mL |
| LLKQGFQNESLQLRQEIEKI [GBP1^558–577] | only GBP1^28–67 and WLBU2 exhibited | 4.7 | None of the peptides exhibited cytotoxicity | None of the peptides exhibited cytotoxicity | None of the peptides exhibited cytotoxicity | None of the peptides exhibited cytotoxicity |  |
| RRWVRRVRRWVRRVVRVVRRWVRR [WLBU2, reference compound] | exhibited, in a dose-dependent manner, antibacterial activity | 90.7 |  |  |  |  | Viability of E. coli (percentage of CFU in relation to solvent control) (E. coli [8]; peptide at 0.1, 1 or 10 µg/ml): led to death of the bacteria; Uptake of SYTOX by F. novicida, quantification by flow cytometry (F. novicida [3]): induced a significant uptake of SYTOX; Morphology of F. novicida by SEM and TEM (F. novicida [7]): apoptosis-like blebbing and apoptosis-like bodies |
| TFYKPGGYYLFLQRKQELEKKYIQTPGKG [GBP1^424–452] | only GBP1^28–67 and WLBU2 exhibited | 11.4 | None of the peptides exhibited cytotoxicity | None of the peptides exhibited cytotoxicity | None of the peptides exhibited cytotoxicity | None of the peptides exhibited cytotoxicity |  |
| VVVVAIVGFYHTGKSYLMNKLAGKQKGFSL [GBP1^38–67] | little or no antimicrobial activity |  |  |  |  |  | Viability of N. meningitidis (percentage of CFU in relation to solvent control) (N. meningitidis [1]; peptide at 10 µg/ml): little or no antimicrobial activity |
| {FITC}-[Ahx]KLIKLLDRLASRSVS [FITC-control peptide, reference compound] |  |  |  |  |  |  | Localization to and killing of N. meningitidis (SYTOX) (N. meningitidis [9]): this did not occur |
| {FITC}-[Ahx]LDILSAIQNPVVVVAIVGFYHTGKSYLMNKLAGKQKGFSL [FITC-GBP1^28–67] |  |  |  |  |  |  | Localization to bacteria and uptake of SYTOX, F. novicida (F. novicida [10]): localized to and induced uptake of SYTOX in F. novicida; Localization to bacteria and uptake of SYTOX, E. coli (E. coli [11]; 10 µg/mL FITC-peptide, 1 h or 6 h): this did not occur with E. coli; Localization to and killing of N. meningitidis (SYTOX) (N. meningitidis [9]): localized to and killed N. meningitidis; Binding to F. novicida exposed to NaCl, saponin or sarcosyl before addition of peptide (F. novicida [12]): did not impair the binding; FITC signal remaining on F. novicida already bound to peptide after exposure to NaCl, saponin or sarcosyl (F. novicida [12]): loss of FITC signal |
| B1 | killed F. novicida in a dose-dependent manner |  |  |  |  |  | Viability of N. meningitidis (percentage of CFU in relation to solvent control) (N. meningitidis [1]; mGBP1 protein at 0.4, 4 or 40 µM): killed N. meningitis in a dose-dependent manner; Viability of WT N. meningitidis (percentage of O.D. in relation to solvent control) (N. meningitidis [1]; mGBP1 protein at 0.4, 4 or 40 µM, WT strain): can kill both WT and ΔlpxA mutant strains; Viability of N. meningitidis ΔlpxA mutant (percentage of O.D. in relation to solvent control) [13]: can kill both WT and ΔlpxA mutant strains; Localization to bacteria and uptake of SYTOX, F. novicida (F. novicida [10]): localized to and induced uptake of SYTOX in F. novicida; Localization to bacteria and uptake of SYTOX, E. coli (E. coli [11]; 40 µM mGBP1 protein, 6 h): this did not occur with E. coli; Localization to bacteria and uptake of SYTOX, N. meningitidis (N. meningitidis [9]; 40 µM mGBP1, 6 h): localized to N. meningitidis, resulting in the uptake of SYTOX; Morphology of F. novicida by SEM (F. novicida [7]): disruption of the membrane integrity, membrane rupture, and expulsion of intracellular content |
